Patent US20160361311A1, “LIGANDS THAT TARGET HEPATITIS C VIRUS E2 PROTEIN” (AMERICAN UNIVERSITY OF CAIRO, priority 2014, published 2016)

How the values were obtained:
[1] = target: T1, recombinant E2 protein (Hepatitis C virus genotype 1b, UniProt Q9WMX2); assay: Surface plasmon resonance (Biacore T100) binding to recombinant E2 immobilized on CM5 chip
T1 construct: encoding amino acids 384-656 of the Con1 envelope protein 2 ectodomain (eE2); made in house; host or cells: HEK293T cells (lentiviral, secreted)
T1 sequence (Q9WMX2 384-656): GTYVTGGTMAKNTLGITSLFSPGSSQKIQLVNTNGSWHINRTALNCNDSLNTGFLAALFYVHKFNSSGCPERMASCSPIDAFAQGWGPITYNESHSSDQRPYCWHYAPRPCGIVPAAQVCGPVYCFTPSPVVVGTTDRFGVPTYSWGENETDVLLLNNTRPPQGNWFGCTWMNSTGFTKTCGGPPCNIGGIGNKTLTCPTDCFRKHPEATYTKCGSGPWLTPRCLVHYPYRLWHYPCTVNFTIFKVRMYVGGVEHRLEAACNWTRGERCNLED
From the text: A construct containing the sequence encoding amino acids 384-656 of the Con1 envelope protein 2 ectodomain (eE2), a genoptype 1 E2 sequence, was cloned into a lentiviral expression vector with a carboxy-terminal Protein A tag separated by a PreScission Protease cleavage consensus sequence. eE2-ProtA was stably expressed in HEK293T cells using lentiviral infection. The protein was secreted into the media and supernatants were purified using IgG Sepharose (GE Healthcare, Piscataway, N.J.). eE2-ProtA was eluted with 100 mM sodium citrate and 20 mM KCl at pH 3 directly into tubes containing 1M Tris pH 9 for immediate neutralization. PreScission Protease was added to the eluted sample at a ratio of 1:50 (enzyme:eE2), and the digest was then dialyzed into 20 mM HEPES pH 7.5, 250 mM NaCl, 5% glycerol. eE2 was separated from the cleaved tag and the PreScission Protease by ion exchange chromatography.
The set of 34 of the ligands predicted by AutoDock to bind to E2 were tested experimentally to determine if they bind to recombinant E2 protein immobilized on a chip using surface Plasmon resonance. The SPR analyses were performed using a Biacore T100 workstation (GE Healthcare, NJ, USA) and Prot-A-tagged HCV E2 protein. 1 μM ProtA-HCV E2 was diluted into 10 mM sodium acetate buffer pH 5 and immobilized for 15 min at a flow speed of 5 μl/min onto a CM5 sensor chip using amine coupling (EDC-NHS). Approximately 10,000 response units (RU) of protein were immobilized on the chip. His-CD81-LEL (Bioclone-CA/USA) binding to HCV E2 was tested prior to injecting the ligands to confirm the E2 protein was functional and would bind CD81-LEL. In a typical experiment with CD81, […] of his-CD81 in 114 μl PBS was injected into channel 2 and 106.4 RUs of CD81 bound to the E2 on the chip. This was followed by testing the binding of the 34 virtual screening hits where the ligands were prepared as 200 μM solutions in PBS and they were introduced to the protein using a pre-programmed 3 min association and 1 min dissociation interval. The response was measured at two time points during dissociation, 10 and 50 seconds, to obtain information on the rate of ligand dissociation from E2. Twenty-three of the ligands predicted by AutoDock to bind to E2 were observed by SPR to bind to the recombinant protein (Table 2). The measured responses for the ligands that bound varied from 54 to 276 RUs. Data was also obtained on the rate of ligand dissociation by measuring the amount of ligand remaining bound at two time points, dissociation 1 (10 seconds) and dissociation 2 (50 seconds), during the rinsing of the chip with buffer (FIG. 8). The majority of the ligands dissociated quickly, as one might expect for small molecules that bind to the surface of a protein.

[2] = system: HCVpp 2a; assay: HCVpp 2a infection of Huh-7 cells, 96-well (luciferase); assay type: cell-based, HCV; conditions: Hepatitis C virus, Huh-7, 30 h, read-out: IC50 HCVpp
Protocol: (§1) Pseudotyped retroviral particles harboring HCV envelope proteins (HCVpp) from different genotypes were produced as described previously. A plasmid encoding the feline endogenous virus RD114 glycoprotein [35] was used for the production of RD114pp. Both HCVpp and RD114pp expressed Firefly luciferase.
(§2) To identify ligands that inhibit HCV infection, Huh-7 cells were seeded in 96-well plates and treated the day after with six different concentrations of each ligand diluted in DMSO in duplicate using a Zephyr automated liquid handling workstation (Caliper BioSciences, Hopkinton, Mass.). The final concentration of DMSO (1%) was adjusted to be the same for all ligand concentrations. Cells treated with DMSO were used as negative controls. Cells treated with different concentrations of anti-CD81 (JS-81 from BD Pharmingen, San Jose, Calif.) 1 hour before infection, were also used as positive controls. The third day, RD114pp, HCVpp or HCVcc were inoculated and incubated for 30 hours at 37° C. Firefly and Gaussia luciferase assays were performed as indicated by the manufacturer (Promega, San Luis Obispo, Calif.).
(§3) The remaining ligands were next tested against pseudotyped retroviral particles harboring genotype-2a HCV envelope proteins (HCVpp 2a), cell culture produced HCV particles (HCVcc) or RD114pp. As a positive control, an anti-CD81 antibody was used in parallel.

[3] = system: HCVpp 1a; assay: HCVpp genotype infection of Huh-7 cells, 24-well; assay type: cell-based, HCV; conditions: Hepatitis C virus
Protocol: as §1, §2
(§4) The analysis of the effect of 281816 ligand on Huh-7 infection by HCVpp bearing envelope proteins from different genotypes was performed in 24-well plates using the method described above. This ligand was also screened for toxicity to the hepatocytes using the MTS (3-(4,5-dimethylthiazol-2-yl)-5-(3-carboxymethoxyphenyl)-2-(4-sulfophenyl)-2Htetrazolium) assay.
(§5) To determine if 281816 would inhibit HCV genotypes other than 2a, a series of infection assays were performed with HCVpp bearing envelope proteins from a number of different HCV genotypes.

[4] = system: HCVpp 1b; assay: HCVpp genotype infection of Huh-7 cells, 24-well; assay type: cell-based, HCV; conditions: Hepatitis C virus
Protocol: as §1, §2, §4, §5

[5] = system: HCVpp 2a; assay: HCVpp genotype infection of Huh-7 cells, 24-well; assay type: cell-based, HCV; conditions: Hepatitis C virus
Protocol: as §1, §2, §4, §5

[6] = system: HCVpp 2b; assay: HCVpp genotype infection of Huh-7 cells, 24-well; assay type: cell-based, HCV; conditions: Hepatitis C virus
Protocol: as §1, §2, §4, §5

[7] = system: HCVpp 4a; assay: HCVpp genotype infection of Huh-7 cells, 24-well; assay type: cell-based, HCV; conditions: Hepatitis C virus
Protocol: as §1, §2, §4, §5

[8] = system: HCVpp 6a; assay: HCVpp genotype infection of Huh-7 cells, 24-well; assay type: cell-based, HCV; conditions: Hepatitis C virus
Protocol: as §1, §2, §4, §5

[9] = system: HCV genotypes 1a, 1b, 2a, 2b, 4a and 6a; assay: HCVpp infection assays over all genotypes tested (summary statements); assay type: cell-based
Protocol: as §1, §2
The analysis of the effect of 281816 ligand on Huh-7 infection by HCVpp bearing envelope proteins from different genotypes was performed in 24-well plates using the method described above. […]

[10] = MTS viability / hepatocyte toxicity assay; assay type: cell-based; conditions: human
Protocol: as §4, §3

[11] = system: hepatocytes; assay: MTS viability / hepatocyte toxicity assay; assay type: cell-based; conditions: over the concentrations tested in the infection assays, highest 10 μM
Protocol: as §4, §3

CSc1ccc2c(c1)C(N1CCN(C)CC1)Cc1ccccc1S2 (centres unmarked) [Ligand 281816]
Binding (RU) ([1]; 200 μM ligand in PBS, 3 min association): 64.5 RU
Dissociation 1 (RU) ([1]; response remaining 10 sec after rinsing with buffer): 3.7 RU
Dissociation 2 (RU) ([1]; response remaining 50 sec after rinsing with buffer): 0.9 RU
IC50 [2]: 1.02 µM
IC50 [3]: 2.95 µM
IC50 [4]: 4.66 µM
IC50 [5]: 2.22 µM
IC50 [6]: 2.93 µM
IC50 [7]: 3.44 µM
IC50 [8]: 3.3 µM
IC50 ([9]; Hepatitis C virus, read-out: IC50 range over HCV genotypes): 2.2 to 4.6 µM
block of hepatocyte infection (in words) ([9]; genotypes 1a, 1b, 2a, 2b, 4a and 6a): block infection of hepatocytes by each of the HCV genotypes and subtypes tested
CC50 [10]: 14 µM
hepatocyte toxicity [11]: not observed
